The values that follow come from patent publication US11840513B2, “Substituted nicotinimide inhibitors of BTK for treating cancer” (GUANGZHOU INNOCARE PHARMA TECH CO., LTD., priority 2013, dated 2023).

In this assay the target is SRC (Homo sapiens (Human), UniProt P12931). In words: kinase-tagged phage / affinity bead competition binding screen at 1000 nM (qPCR readout). The settings on record: 1000 nM screen.
SRC, sequence (P12931 whole entry, looked up): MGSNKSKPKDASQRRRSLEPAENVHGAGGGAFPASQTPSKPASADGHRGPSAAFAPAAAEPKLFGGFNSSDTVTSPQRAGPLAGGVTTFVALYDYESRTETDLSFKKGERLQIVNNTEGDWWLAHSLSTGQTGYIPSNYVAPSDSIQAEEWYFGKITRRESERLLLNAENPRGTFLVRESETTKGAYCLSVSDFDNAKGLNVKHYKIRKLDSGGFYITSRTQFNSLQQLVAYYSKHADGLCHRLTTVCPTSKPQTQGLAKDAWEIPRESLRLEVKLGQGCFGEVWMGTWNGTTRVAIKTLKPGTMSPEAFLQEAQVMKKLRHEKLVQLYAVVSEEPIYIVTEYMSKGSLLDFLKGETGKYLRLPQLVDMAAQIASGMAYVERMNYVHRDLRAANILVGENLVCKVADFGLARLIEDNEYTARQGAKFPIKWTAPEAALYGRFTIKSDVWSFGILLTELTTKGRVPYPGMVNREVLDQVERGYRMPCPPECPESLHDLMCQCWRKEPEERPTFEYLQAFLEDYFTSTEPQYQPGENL

On to `C=CC(=O)N1CCN(c2ccc(C(N)=O)c(-c3ccc(Oc4ccccc4)cc3)n2)CC1` [Example 5, 6-(4-acryloylpiperazin-1-yl)-2-(4-phenoxyphenyl)nicotinamide], for which the “Fold Difference (BTK vs SRC)” value is reported as above 100×.
